Assay results published in the supplement of paper PMC10627819.

Assays:
Assay in all cases: fitness (endpoint OD595 vs no drug) (fraction); higher = more growth
[1] = tested on: S. pneumoniae D39V
Outline: (§1)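 Plates with 384 wells were inoculated at OD595 0.01 using 30 µl of TSB, LB Lennox or CY, or 55 µl for S. pneumoniae. Incubation was at 37 °C, with OD595 measured every 30 min for 14 h. Fitness is the stationary-phase transition optical density over the robust mean of no-drug control wells, after first-reading background subtraction; it is capped at 1.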

[2] = tested on: B. subtilis 168
Outline: as §1

[3] = tested on: S. aureus Newman
Outline: as §1

O=C(O)[C@H]1/C(=C/CO)O[C@@H]2CC(=O)N21 [Clavulanic acid] + C[C@H]1c2cccc(O)c2C(=O)C2=C(O)[C@]3(O)C(=O)C(C(N)=O)=C(O)[C@@H](N(C)C)[C@@H]3[C@@H](O)[C@@H]21 [Doxycycline]
fitness, [1], one replicate
Details	first compound 0.5 µg/mL	first compound 1 µg/mL	first compound 2 µg/mL
partner 0.003875 µg/mL	≥ 1	0.985	0.9
partner 0.00775 µg/mL	0.998	0.964	0.895

Details	fitness
[1], first compound 0.5 µg/mL, partner 0.0155 µg/mL	0.929
[1], first compound 1 µg/mL, partner 0.0155 µg/mL	0.892
[1], first compound 1 µg/mL, partner 0.031 µg/mL	0.615
[1], first compound 1 µg/mL, partner 0.062 µg/mL	0.429
[1], first compound 2 µg/mL, partner 0.0155 µg/mL	0.73
[1], first compound 2 µg/mL, partner 0.031 µg/mL	0.45
[1], first compound 2 µg/mL, partner 0.062 µg/mL	0.281
[2], first compound 1.5 µg/mL, partner 0.02 µg/mL	0.862
[2], first compound 1.5 µg/mL, partner 0.04 µg/mL	0.762
[2], first compound 3 µg/mL, partner 0.02 µg/mL	0.852
[2], first compound 3 µg/mL, partner 0.04 µg/mL	0.721
[2], first compound 6 µg/mL, partner 0.02 µg/mL	0.728
[2], first compound 6 µg/mL, partner 0.04 µg/mL	0.628
[2], first compound 6 µg/mL, partner 0.08 µg/mL	0.375

O=C(O)[C@H]1/C(=C/CO)O[C@@H]2CC(=O)N21 [Clavulanic acid] + Clc1ccc(COC(Cn2ccnc2)c2ccc(Cl)cc2Cl)c(Cl)c1 [Miconazole]
fitness, [1]
Details	partner 1.073 µg/mL	partner 1.25 µg/mL	partner 2.145 µg/mL	partner 2.5 µg/mL	partner 4.29 µg/mL	partner 5 µg/mL
first compound 0.5 µg/mL	≥ 1	0.956	0.973	0.981	0.924	0.94
first compound 1 µg/mL	≥ 1	0.876	0.923	0.873	0.883	0.838
first compound 2 µg/mL	0.898	0.715	0.787	0.66	0.754	0.653

O=C(O)[C@H]1/C(=C/CO)O[C@@H]2CC(=O)N21 [Clavulanic acid] + O=C1CN(/N=C/c2ccc([N+](=O)[O-])o2)C(=O)N1 [Nitrofurantoin]
fitness, [1]
Details	partner 1.285 µg/mL	partner 2 µg/mL	partner 2.57 µg/mL	partner 4 µg/mL	partner 8 µg/mL
first compound 0.5 µg/mL	0.916	0.92	0.943	0.878	0.628
first compound 1 µg/mL	0.933	0.887	0.94	0.773	0.544
first compound 2 µg/mL	0.883	0.658	0.874	0.59	0.358

[1], partner 5.14 µg/mL, one replicate
Details	fitness
first compound 0.5 µg/mL	0.898
first compound 1 µg/mL	0.852
first compound 2 µg/mL	0.817

CNC(C)C1CCC(N)C(OC2C(N)CC(N)C(OC3OCC(C)(O)C(NC)C3O)C2O)O1 (stereo unspecified) [Gentamicin] + CC1(C)S[C@@H]2[C@H](NC(=O)Cc3ccccc3)C(=O)N2[C@H]1C(=O)O [Penicillin G]
fitness, [3], main component drawn
Details	first compound 0.375 µg/mL	first compound 0.5 µg/mL	first compound 0.75 µg/mL	first compound 1 µg/mL	first compound 1.5 µg/mL	first compound 2 µg/mL
partner 0.0195 µg/mL	0.836	0.901	0.82	0.937	0.865	0.98
partner 0.039 µg/mL	0.948	0.897	0.914	0.939	0.944	0.96
partner 0.078 µg/mL	0.944	0.842	0.925	0.886	0.918	0.924

Clc1ccc(COC(Cn2ccnc2)c2ccc(Cl)cc2Cl)c(Cl)c1 (stereo unspecified) [Miconazole] + CO[C@@]12[C@H](COC(N)=O)C3=C(C(=O)C(C)=C(N)C3=O)N1C[C@@H]1N[C@@H]12 [Mitomycin C]
fitness, [1]
Details	first compound 1.073 µg/mL	first compound 1.25 µg/mL	first compound 2.145 µg/mL	first compound 2.5 µg/mL	first compound 4.29 µg/mL	first compound 5 µg/mL
partner 0.001075 µg/mL	–	0.983	–	0.979	–	0.95
partner 0.002 µg/mL	0.882	–	0.883	–	0.779	–
partner 0.00215 µg/mL	–	0.88	–	0.898	–	0.907
partner 0.004 µg/mL	0.854	–	0.826	–	0.742	–
partner 0.0043 µg/mL	–	0.786	–	0.777	–	0.812
partner 0.008 µg/mL	0.718	–	0.748	–	0.64	–

Clc1ccc(COC(Cn2ccnc2)c2ccc(Cl)cc2Cl)c(Cl)c1 (stereo unspecified) [Miconazole] + Cc1ncc([N+](=O)[O-])n1CCO [Metronidazole]
fitness, [1]
Details	first compound 1.073 µg/mL	first compound 1.25 µg/mL	first compound 2.145 µg/mL	first compound 2.5 µg/mL	first compound 4.29 µg/mL	first compound 5 µg/mL
partner 1.073 µg/mL	–	0.934	–	0.955	–	0.972
partner 1.25 µg/mL	≥ 1	–	≥ 1	–	0.99	–
partner 2.145 µg/mL	–	0.932	–	0.858	–	0.846
partner 2.5 µg/mL	≥ 1	–	≥ 1	–	0.888	–
partner 4.29 µg/mL	–	0.905	–	0.884	–	0.94
partner 5 µg/mL	≥ 1	–	≥ 1	–	0.984	–

Cc1onc(-c2ccccc2)c1C(=O)N[C@@H]1C(=O)N2[C@@H]1SC(C)(C)[C@@H]2C(=O)O [Oxacillin] + CC1(C)S[C@@H]2[C@H](NC(=O)Cc3ccccc3)C(=O)N2[C@H]1C(=O)O [Penicillin G]
fitness, [3]
Details	partner 0.0195 µg/mL	partner 0.039 µg/mL	partner 0.078 µg/mL
first compound 0.0156 µg/mL	0.768	0.748	0.727
first compound 0.0312 µg/mL	0.659	0.688	0.66
